Reference: ChEMBL document CHEMBL1201862, “PubChem BioAssay data set” (2004)
Activity calls are given as the source filed them.

Legend:
[1] = NIH-3T3 fibroblast cytotoxicity, dose response, cytotoxicity control, cell-based, fluorescence, Alamar Blue, secondary assay (AID 2327); assay type: functional;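 note: NIH-3T3 mouse fibroblasts cultured with fluconazole at 8 µg/mL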
[2] = Vero E6 cell cytotoxicity, dose response, cytotoxicity control for non-replicating M. tuberculosis project, secondary assay (AID 492998); assay type: functional, VeroE6; conditions: Vero C1008
cells [3] = assay type: functional
[4] = target: T1, Serine/threonine-protein phosphatase (Candida dubliniensis (strain CD36 / CBS 7987 / NCPF 3949 / NRRLY-17841) (Yeast), UniProt B9W6M3); assay: calcineurin pathway inhibitors in yeast reporter, dose response, S. cerevisiae, CDRE-lacZ, luminescence, secondary (AID 2388); assay type: functional, cell-based;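 note: yeast reporter cells carrying a calcineurin-responsive lacZ construct stimulated with calcium chloride; luminescent beta-galactosidase reporter signal in whole cells rather than isolated phosphatase activity; potency for inhibition where a drop in reporter signal means calcineurin blockade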
T1 sequence (B9W6M3 whole entry): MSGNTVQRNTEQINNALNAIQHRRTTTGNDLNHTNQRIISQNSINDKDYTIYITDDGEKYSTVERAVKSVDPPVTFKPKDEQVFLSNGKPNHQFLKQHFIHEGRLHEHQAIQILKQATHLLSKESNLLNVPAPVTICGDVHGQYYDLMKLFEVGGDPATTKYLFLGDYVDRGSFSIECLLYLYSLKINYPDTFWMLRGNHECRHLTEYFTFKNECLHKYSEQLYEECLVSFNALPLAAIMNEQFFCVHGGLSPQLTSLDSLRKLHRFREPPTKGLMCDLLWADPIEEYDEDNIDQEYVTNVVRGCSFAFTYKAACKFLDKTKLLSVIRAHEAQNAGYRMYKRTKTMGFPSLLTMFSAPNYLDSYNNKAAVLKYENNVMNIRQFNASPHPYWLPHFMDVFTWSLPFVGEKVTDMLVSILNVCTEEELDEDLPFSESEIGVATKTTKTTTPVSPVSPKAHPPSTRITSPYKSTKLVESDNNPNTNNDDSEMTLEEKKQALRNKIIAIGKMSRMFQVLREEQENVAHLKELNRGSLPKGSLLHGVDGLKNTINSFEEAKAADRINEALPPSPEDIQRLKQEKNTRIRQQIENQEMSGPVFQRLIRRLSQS

[5] = microbe, parasite or virus in culture; assay type: functional; conditions: Mycobacterium tuberculosis
[6] = HepG2 cell cytotoxicity, dose response, cytotoxicity control for non-replicating M. tuberculosis project (AID 489018); assay type: functional; conditions: Mycobacterium tuberculosis
[7] = THP-1 cell cytotoxicity, dose response, cytotoxicity control for non-replicating M. tuberculosis project (AID 489025); assay type: functional
[8] = C. albicans growth with fluconazole, confirmation, fluorescence, retest (AID 2467); assay type: functional, cell-based
[9] = target: ATP-dependent molecular chaperone HSP82 (Candida albicans (strain WO-1) (Yeast), UniProt C4YTQ8); assay: loss of DOC-induced GRE-beta-galactosidase reporter signal, dose response, Hsp90 inhibitor project, S. cerevisiae, luminescence (AID 2400); assay type: functional, cell-based;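 note: beta-galactosidase luminescence from glucocorticoid response element reporter as proxy for Hsp90 function; inhibitor potency where signal loss means Hsp90 inhibition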
ATP-dependent molecular chaperone HSP82, sequence (C4YTQ8 whole entry): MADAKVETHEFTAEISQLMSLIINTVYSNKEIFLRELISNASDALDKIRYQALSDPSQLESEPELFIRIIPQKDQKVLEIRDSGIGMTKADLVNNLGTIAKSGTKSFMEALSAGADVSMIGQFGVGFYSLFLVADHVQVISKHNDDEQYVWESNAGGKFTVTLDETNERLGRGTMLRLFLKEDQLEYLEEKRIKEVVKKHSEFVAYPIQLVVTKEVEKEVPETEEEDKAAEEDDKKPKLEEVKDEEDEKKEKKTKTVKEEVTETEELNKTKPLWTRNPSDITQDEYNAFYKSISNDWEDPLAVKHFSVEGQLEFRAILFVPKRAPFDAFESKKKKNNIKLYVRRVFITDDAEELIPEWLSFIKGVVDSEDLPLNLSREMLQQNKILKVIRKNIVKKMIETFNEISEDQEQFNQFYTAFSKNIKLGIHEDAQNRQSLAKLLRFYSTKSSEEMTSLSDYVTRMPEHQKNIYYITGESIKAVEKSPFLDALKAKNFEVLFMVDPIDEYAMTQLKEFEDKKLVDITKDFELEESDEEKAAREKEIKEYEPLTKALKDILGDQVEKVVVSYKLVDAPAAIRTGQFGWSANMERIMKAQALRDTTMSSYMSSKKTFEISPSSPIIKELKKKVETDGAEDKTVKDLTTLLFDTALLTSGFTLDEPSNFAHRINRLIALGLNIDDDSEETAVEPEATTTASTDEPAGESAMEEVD

[10] = target: T2, Short transient receptor potential channel 4 (Mus musculus, UniProt Q9QUQ5); assay: mouse TRPC4 channel inhibitors, dose response, cell-based, HEK293 TRPC4/mu-opioid, Fluo-4 calcium (AID 434942); assay type: functional;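 note: potency of inhibitors blocking the TRPC4 calcium response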
T2 sequence (Q9QUQ5 whole entry): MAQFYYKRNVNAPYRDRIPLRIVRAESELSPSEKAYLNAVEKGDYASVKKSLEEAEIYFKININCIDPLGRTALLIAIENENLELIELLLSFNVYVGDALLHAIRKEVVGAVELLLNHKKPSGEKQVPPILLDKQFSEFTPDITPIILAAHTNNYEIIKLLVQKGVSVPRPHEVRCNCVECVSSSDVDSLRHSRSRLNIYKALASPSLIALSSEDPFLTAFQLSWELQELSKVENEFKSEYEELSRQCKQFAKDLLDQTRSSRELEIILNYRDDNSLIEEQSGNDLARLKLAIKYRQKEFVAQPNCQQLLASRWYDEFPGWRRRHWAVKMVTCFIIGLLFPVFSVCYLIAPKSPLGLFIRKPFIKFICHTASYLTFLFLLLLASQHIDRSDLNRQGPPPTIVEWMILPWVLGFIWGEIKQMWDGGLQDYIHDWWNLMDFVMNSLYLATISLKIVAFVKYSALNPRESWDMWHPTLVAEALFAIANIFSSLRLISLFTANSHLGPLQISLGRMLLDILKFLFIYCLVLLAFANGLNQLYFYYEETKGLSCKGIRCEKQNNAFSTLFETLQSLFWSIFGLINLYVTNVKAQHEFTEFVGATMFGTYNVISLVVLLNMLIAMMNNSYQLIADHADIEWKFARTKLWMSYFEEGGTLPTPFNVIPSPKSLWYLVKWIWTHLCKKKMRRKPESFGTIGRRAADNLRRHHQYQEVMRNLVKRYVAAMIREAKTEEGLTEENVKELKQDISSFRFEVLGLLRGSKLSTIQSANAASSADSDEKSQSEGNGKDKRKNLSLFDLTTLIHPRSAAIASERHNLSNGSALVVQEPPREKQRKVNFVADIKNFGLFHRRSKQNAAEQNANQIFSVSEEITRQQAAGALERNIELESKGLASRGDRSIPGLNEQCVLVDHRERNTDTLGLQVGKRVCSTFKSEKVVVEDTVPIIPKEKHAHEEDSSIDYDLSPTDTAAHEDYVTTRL

[11] = cytotoxicity toward NIH3T3 fibroblasts, dose response, counter-screen, cell-based, ATP luminescence, mouse fibroblasts (AID 2010); assay type: functional;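 note: cells exposed to compound for about 90 hours before reading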
[12] = inhibitors of SNCA 5'UTR-driven reporter translation, confirmation, H4 neuroglioma cells, luminescence (AID 1988); assay type: functional, cell-based
cells [13] = assay type: functional, cell-based
[14] = HepG2 cell cytotoxicity, dose response, cytotoxicity control for Shn3 inhibitor project, CellTiter-Glo, cherry-picked (AID 624134); assay type: functional, cell-based
Streptococcus = assay: Group A Streptococcus viability loss, dose response, counter-screen for streptokinase expression inhibitor project, luminescence, BacTiterGlo (AID 1915); assay type: functional, organism-based;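 note: potency for reduction of bacterial viability or growth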
INS1 = assay: beta cell apoptosis inhibitors, cytokine rescue, dose response, luminescence, retest (AID 449756); assay type: functional, cell-based; conditions: Rattus norvegicus;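 note: cell death triggered by IL-1 beta plus TNF-alpha plus IFN-gamma mixture; protective hits raise ATP signal compared with cytokine alone wells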
[15] = inhibitors of firefly luciferase expression or activity, dose response, H4 neuroglioma cells, luminescence (AID 1990); assay type: functional, cell-based
[16] = inhibitors of intracellular T. cruzi replication, confirmation, NIH3T3 host cells, beta-gal luminescence (AID 2044); assay type: functional, cell-based;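 note: intracellular parasites grown in NIH/3T3 mouse fibroblasts as host cells; luminescent beta-galactosidase reporter signal from transgenic T. cruzi replicating inside host cells; inhibitors lower the luminescence signal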
[17] = Shn3 3'UTR reporter inhibitors, dose response, cell-based, Clone20 osteoblasts, firefly luciferase, cherry-picked (AID 624132); assay type: functional;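 note: firefly luciferase luminescence from reporter carrying the Shn3 3'UTR in osteoblasts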
[18] = test system: Streptococcus sp. 'group A'; assay: growth inhibition of control SK(-) GAS strain, dose response, counter-screen for streptokinase expression inhibitor project, luminescence, kanamycin, BacTiterGlo, confirmation (AID 1900); assay type: functional, organism-based
[19] = control 3'UTR Renilla luciferase suppression, dose response, counter-screen for Shn3 inhibitor project, cell-based, Clone20-Shn3RL, cherry-picked (AID 624133); assay type: functional
[20] = Luminescence Cell-Based Dose Response HTS to Identify Inhibitors of 5'UTR Stem-Loop Driven Prion Protein mRNA Translation in H4 Neuroglioblastoma Cells. [Related pubchem assays: 1827 (Project Summary), 1813 (Primary HTS)]; assay type: functional
Streptokinase A = target: T3, Streptokinase A (Streptococcus pyogenes serotype M1, UniProt P10520); assay: S. pyogenes streptokinase expression inhibitors, potency, dose response, plasminogen activation absorbance, OD405 (AID 1914); assay type: functional, Streptococcus pyogenes M1 GAS;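 note: secreted streptokinase activity via plasminogen activation per viability signal from cell pellet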
T3 sequence (P10520 whole entry): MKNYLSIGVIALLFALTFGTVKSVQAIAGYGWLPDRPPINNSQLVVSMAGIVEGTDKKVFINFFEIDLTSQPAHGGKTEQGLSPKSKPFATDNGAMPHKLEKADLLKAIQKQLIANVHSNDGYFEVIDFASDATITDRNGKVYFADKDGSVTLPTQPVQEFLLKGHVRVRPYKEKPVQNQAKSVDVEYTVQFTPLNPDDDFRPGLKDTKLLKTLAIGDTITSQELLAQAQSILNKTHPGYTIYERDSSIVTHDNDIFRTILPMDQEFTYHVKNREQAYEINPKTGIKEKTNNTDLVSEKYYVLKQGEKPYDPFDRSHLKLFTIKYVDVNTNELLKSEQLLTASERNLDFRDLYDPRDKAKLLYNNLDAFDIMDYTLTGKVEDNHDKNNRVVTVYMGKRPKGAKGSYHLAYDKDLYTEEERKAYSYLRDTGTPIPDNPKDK

[21] = target: Heat shock protein HSP 90-alpha (Homo sapiens, UniProt P07900); assay type: functional, organism-based
cells [22] = assay type: functional, cell-based; remark: listed apart in the source
[23] = target: cAMP-dependent protein kinase catalytic subunit alpha (Homo sapiens, UniProt P17612); assay type: functional
[24] = target: Mitogen-activated protein kinase kinase kinase kinase 4 (Homo sapiens, UniProt O95819); assay type: functional
Mitogen-activated protein kinase kinase kinase kinase 4, sequence (O95819 whole entry): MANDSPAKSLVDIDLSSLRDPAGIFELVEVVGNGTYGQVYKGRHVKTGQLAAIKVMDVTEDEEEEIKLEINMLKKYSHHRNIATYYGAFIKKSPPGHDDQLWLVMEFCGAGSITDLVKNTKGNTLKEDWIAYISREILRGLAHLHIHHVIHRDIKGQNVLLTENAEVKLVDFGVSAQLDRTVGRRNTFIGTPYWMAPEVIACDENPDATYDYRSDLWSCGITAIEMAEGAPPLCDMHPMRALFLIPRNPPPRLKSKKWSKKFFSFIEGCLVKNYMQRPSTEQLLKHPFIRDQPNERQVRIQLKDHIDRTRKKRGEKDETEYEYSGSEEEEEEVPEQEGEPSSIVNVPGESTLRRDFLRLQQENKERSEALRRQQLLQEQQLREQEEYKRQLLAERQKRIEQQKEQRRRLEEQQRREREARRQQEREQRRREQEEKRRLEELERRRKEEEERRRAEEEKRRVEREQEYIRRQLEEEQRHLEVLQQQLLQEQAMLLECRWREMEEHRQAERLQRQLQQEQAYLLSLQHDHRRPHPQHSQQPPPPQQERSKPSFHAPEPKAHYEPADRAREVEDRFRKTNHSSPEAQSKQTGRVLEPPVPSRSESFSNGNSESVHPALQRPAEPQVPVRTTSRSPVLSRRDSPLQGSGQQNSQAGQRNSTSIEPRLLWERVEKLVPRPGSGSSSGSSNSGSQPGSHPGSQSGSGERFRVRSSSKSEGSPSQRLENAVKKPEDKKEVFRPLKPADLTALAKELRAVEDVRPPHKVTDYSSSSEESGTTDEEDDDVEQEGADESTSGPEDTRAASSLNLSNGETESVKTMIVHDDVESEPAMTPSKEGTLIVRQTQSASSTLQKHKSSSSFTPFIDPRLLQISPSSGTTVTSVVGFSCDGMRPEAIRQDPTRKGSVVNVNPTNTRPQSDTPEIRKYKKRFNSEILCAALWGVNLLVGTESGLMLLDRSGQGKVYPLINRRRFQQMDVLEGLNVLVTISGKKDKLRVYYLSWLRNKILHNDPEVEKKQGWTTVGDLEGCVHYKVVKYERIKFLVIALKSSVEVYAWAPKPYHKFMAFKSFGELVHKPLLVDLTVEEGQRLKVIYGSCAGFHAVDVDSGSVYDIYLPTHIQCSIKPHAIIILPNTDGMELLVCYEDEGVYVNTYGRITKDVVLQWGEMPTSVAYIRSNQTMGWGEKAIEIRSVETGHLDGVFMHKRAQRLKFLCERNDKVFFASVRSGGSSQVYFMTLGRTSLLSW

[25] = target: Homeodomain-interacting protein kinase 2 (Homo sapiens, UniProt Q9H2X6); assay type: functional;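 note: measured within a kinome-wide kinase profiling panel, HIPK2 being one panel member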
Homeodomain-interacting protein kinase 2, sequence (Q9H2X6 whole entry): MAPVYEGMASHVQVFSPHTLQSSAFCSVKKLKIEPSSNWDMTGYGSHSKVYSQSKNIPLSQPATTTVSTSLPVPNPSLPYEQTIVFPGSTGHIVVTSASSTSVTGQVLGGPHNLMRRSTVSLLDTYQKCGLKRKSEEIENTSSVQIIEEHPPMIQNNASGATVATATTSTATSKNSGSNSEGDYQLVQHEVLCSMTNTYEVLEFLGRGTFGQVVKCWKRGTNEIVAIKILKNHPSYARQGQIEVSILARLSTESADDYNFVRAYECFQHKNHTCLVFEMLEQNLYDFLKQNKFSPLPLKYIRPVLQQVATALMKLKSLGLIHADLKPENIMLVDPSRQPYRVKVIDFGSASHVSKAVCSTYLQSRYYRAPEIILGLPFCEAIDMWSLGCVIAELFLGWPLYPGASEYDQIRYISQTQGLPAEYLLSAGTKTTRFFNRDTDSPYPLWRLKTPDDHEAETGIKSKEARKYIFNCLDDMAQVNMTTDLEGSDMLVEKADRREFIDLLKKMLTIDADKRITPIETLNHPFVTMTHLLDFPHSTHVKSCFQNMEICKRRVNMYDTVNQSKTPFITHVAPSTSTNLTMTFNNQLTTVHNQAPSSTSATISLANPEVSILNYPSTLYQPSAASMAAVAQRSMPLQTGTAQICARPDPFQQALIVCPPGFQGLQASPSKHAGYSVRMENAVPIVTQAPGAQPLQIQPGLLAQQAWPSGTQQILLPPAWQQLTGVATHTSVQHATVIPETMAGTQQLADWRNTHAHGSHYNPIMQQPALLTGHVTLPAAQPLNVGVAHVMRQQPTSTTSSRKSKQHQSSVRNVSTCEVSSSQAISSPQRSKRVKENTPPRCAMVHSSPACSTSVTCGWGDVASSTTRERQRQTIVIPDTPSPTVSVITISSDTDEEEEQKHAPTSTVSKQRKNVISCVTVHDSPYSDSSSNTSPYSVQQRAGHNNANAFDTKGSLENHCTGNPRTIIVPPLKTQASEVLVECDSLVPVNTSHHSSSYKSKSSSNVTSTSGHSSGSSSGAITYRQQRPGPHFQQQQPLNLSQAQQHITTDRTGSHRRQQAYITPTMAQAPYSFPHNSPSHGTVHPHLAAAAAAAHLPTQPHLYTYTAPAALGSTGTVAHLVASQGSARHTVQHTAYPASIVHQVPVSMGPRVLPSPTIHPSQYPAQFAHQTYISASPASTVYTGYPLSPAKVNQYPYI

[26] = target: Serine/threonine-protein kinase pim-1 (Homo sapiens, UniProt P11309); assay type: functional
Serine/threonine-protein kinase pim-1, sequence (P11309 whole entry): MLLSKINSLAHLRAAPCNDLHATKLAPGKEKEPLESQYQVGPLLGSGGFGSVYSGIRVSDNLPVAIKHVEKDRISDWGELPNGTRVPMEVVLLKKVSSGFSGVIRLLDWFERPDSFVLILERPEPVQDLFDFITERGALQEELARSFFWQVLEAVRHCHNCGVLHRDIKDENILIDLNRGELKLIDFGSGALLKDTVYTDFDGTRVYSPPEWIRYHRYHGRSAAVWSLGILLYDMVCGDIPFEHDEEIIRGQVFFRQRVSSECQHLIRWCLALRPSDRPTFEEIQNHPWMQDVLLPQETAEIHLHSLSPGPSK

[27] = target: Dual specificity protein kinase CLK4 (Homo sapiens, UniProt Q9HAZ1); assay type: functional
Dual specificity protein kinase CLK4, sequence (Q9HAZ1 whole entry): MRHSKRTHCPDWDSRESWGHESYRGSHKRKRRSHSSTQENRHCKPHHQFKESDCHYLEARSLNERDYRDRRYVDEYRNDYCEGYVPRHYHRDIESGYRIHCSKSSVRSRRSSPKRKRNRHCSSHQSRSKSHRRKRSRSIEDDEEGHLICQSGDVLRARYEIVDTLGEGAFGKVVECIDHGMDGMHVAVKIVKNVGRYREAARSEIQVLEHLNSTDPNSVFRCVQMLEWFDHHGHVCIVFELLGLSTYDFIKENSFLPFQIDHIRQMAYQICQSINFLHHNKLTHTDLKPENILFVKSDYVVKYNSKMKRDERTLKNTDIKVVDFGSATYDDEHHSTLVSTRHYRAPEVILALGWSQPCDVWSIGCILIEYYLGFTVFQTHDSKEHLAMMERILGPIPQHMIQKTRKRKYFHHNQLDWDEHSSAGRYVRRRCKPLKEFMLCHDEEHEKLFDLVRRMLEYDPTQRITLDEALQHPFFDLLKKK

[28] = target: Glycogen synthase kinase-3 beta (Homo sapiens, UniProt P49841); assay type: functional;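 note: value comes from a broad kinome profiling panel, with GSK3B as the panel member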
Glycogen synthase kinase-3 beta, sequence (P49841 whole entry): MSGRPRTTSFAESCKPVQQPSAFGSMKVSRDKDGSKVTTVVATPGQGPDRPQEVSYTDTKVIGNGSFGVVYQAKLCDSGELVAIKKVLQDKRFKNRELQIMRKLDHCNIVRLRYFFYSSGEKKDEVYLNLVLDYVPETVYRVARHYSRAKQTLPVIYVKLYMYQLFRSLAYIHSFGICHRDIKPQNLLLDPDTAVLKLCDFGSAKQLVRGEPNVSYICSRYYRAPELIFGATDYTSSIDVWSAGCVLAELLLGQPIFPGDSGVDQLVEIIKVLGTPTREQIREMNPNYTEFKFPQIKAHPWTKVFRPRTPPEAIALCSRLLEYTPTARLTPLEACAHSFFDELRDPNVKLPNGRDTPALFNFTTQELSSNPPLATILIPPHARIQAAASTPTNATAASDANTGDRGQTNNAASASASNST

[29] = target: T4, Interleukin-1 receptor-associated kinase 4 (Homo sapiens, UniProt Q9NWZ3); assay type: functional
T4 sequence (Q9NWZ3 whole entry): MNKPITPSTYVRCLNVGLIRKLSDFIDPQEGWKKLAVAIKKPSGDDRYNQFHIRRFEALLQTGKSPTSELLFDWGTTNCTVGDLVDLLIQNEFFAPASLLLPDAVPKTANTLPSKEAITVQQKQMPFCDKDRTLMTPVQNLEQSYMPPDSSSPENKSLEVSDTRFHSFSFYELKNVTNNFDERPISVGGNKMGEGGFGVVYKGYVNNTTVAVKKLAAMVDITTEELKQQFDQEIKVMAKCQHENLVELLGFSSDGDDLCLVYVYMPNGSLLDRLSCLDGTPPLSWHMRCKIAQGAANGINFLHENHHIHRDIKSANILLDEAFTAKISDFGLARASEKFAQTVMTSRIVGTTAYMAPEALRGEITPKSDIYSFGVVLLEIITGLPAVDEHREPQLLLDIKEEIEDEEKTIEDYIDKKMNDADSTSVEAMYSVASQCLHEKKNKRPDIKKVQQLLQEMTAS

[30] = target: Cell division cycle 7-related protein kinase (Homo sapiens, UniProt O00311); assay type: functional;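 note: value obtained from a kinome-wide kinase panel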
Cell division cycle 7-related protein kinase, sequence (O00311 whole entry): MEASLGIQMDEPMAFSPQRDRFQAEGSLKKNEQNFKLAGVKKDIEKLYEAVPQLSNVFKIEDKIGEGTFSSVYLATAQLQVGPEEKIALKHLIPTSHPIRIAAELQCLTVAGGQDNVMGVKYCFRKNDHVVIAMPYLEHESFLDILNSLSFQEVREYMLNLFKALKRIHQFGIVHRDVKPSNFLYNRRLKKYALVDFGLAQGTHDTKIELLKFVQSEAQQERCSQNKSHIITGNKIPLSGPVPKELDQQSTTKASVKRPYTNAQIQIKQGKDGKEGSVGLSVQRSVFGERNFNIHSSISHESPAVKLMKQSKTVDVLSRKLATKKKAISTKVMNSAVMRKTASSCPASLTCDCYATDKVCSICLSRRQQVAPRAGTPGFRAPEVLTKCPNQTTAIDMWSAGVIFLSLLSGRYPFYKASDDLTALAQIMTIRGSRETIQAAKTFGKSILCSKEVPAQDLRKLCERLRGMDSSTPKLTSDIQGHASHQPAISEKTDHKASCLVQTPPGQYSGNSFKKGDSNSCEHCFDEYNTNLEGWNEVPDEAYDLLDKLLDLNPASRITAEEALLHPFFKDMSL

Compound	EC50 [1]	EC50 [4]	EC50 [8]	EC50 [9]	Ki [23]	Ki [25]	Ki [26]	Ki [27]	Ki [28]	Ki [29]	Ki [30]	also measured
O=c1c2ccc(Cl)cc2nc(-c2ccc([N+](=O)[O-])cc2)n1O	99400 nM (active)	> 180000 nM (inactive)	430 nM (active)	44600 nM (active)	–	–	–	–	–	–	–	CC50 [2]: 12100 nM (active); IC50 (cells [3]): 8170 nM (active); CC50 [5]: 21400 nM (active); CC50 [6]: 16800 nM (active); CC50 [7]: 11800 nM (active)
CCOc1ccc(-c2ccc(NS(=O)(=O)c3ccc([N+](=O)[O-])cc3)cc2)nn1	50700 nM (active)	> 180000 nM (inactive)	2360 nM (active)	> 150000 nM (inactive)	–	–	–	–	–	–	–	–
CCCCCCCNC(=O)COc1ccc2c(c1)C(=O)CC(C)(C)O2	> 160000 nM (inactive)	> 180000 nM (inactive)	2280 nM (active)	> 160000 nM (inactive)	–	–	–	–	–	–	–	EC50 [10]: 944 nM (active)
Oc1c(CN2CCN(c3ccc(F)cc3)CC2)cc(Cl)c2cccnc12	26100 nM (active)	> 180000 nM (inactive)	693 nM (active)	> 160000 nM (inactive)	–	–	–	–	–	–	–	EC50 [11]: 8200 nM (active); EC50 [12]: 192 nM (active); EC50 (cells [13]): > 350000 nM (not active); AC50 [14]: > 70000 nM (inactive); EC50 (Streptococcus): 10800 nM (active); AC50 (INS1): 1270 nM (active); EC50 [15]: 200 nM (active); EC50 [16]: 465 nM (active); AC50 [17]: 1320 nM (active); EC50 [18]: 1560 nM (active); AC50 [19]: 534 nM (active); EC50 [20]: 157 nM (active); EC50 (Streptokinase A): > 150000 nM (not active); AC50 [21]: 7920 nM (active); EC50 (cells [22]): 69400 nM (active)
Cc1cc(Br)ccc1OCC(=O)NNC(=O)C(=O)Nc1ccccc1	> 150000 nM (inactive)	> 180000 nM (inactive)	526 nM (active)	> 150000 nM (inactive)	–	–	–	–	–	–	–	IC50 (cells [3]): 12200 nM (active)
Fc1cccc(-c2c[nH]c3ncccc23)c1	–	–	–	–	2510 nM (active)	1000 nM (active)	7940 nM (active)	39.8 nM (active)	2000 nM (active)	2510 nM (active)	63.1 nM (active)	Ki [24]: 3.16 nM (active)
C=CCNc1cc(-c2c[nH]c3ncccc23)cc(Cl)n1	–	–	–	–	398 nM (active)	50.1 nM (active)	794 nM (active)	3.98 nM (active)	100 nM (active)	631 nM (active)	0.794 nM (active)	–
CCCCOc1cc(-c2ccncc2)cc2[nH]nc(N)c12	–	–	–	–	1260 nM (active)	794 nM (active)	1580 nM (active)	10 nM (active)	631 nM (active)	631 nM (active)	15.8 nM (active)	Ki [24]: 251 nM (active)
